BindingDB's records for doi:10.1124/jpet.104.081539 (Kyowa Hakko Kogyo, 2005)

How the values were obtained:
[1] = target: T1, 5-hydroxytryptamine receptor 1A (Homo sapiens, UniProt P08908)
T1 sequence (P08908 whole entry): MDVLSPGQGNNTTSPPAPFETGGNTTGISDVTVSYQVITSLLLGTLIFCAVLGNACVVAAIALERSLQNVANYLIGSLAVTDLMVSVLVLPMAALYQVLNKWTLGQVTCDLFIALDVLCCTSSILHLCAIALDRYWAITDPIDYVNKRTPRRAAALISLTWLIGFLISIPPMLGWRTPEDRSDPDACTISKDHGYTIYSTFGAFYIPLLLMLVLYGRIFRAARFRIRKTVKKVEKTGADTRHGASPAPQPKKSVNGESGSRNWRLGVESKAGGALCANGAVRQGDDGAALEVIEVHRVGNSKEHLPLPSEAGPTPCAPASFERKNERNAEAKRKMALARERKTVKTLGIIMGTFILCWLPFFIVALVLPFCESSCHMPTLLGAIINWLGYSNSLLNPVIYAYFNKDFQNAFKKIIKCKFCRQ

[2] = target: T2, Alpha-1A adrenergic receptor (Rattus norvegicus, UniProt P43140)
T2 sequence (P43140 whole entry): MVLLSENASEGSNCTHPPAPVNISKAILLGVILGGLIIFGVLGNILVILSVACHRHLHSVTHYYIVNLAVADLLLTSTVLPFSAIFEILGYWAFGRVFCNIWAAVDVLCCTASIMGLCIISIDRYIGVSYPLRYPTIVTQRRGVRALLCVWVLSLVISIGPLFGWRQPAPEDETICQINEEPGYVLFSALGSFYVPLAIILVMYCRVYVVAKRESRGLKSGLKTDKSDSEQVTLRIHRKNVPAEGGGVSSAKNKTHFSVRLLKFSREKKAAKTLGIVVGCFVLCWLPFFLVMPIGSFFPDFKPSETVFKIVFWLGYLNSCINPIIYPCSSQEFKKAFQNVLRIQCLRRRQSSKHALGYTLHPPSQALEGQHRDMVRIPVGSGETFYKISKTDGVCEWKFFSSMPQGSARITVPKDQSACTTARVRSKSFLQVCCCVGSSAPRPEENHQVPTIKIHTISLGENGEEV

[3] = target: Histamine H2 receptor (Homo sapiens, UniProt P25021)
[4] = target: Histamine H1 receptor (Homo sapiens, UniProt P35367)
[5] = target: T3, Cysteinyl leukotriene receptor 1 (Homo sapiens, UniProt Q9Y271)
T3 sequence (Q9Y271 whole entry): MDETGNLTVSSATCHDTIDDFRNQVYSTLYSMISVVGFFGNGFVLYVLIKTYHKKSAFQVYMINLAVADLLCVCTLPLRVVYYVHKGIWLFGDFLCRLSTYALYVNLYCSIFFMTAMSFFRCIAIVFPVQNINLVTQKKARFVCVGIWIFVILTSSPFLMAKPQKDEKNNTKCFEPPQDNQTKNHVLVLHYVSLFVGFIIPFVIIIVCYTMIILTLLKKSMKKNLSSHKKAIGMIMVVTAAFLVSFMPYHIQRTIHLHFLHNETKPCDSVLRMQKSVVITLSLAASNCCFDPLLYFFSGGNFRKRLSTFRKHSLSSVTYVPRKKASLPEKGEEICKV

[6] = target: T4, Thromboxane A2 receptor (Homo sapiens, UniProt P21731)
T4 sequence (P21731 whole entry): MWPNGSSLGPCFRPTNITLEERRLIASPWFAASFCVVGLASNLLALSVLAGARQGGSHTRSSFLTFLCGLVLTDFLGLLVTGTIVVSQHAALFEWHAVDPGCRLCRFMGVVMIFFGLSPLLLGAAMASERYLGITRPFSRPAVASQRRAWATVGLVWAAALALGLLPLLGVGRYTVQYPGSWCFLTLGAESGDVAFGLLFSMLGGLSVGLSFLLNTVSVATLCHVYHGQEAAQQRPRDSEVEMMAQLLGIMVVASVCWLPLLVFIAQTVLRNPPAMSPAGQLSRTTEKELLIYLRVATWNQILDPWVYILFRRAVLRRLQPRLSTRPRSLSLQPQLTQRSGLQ

[7] = target: T5, Polyunsaturated fatty acid 5-lipoxygenase (Homo sapiens, UniProt P09917)
T5 sequence (P09917 whole entry): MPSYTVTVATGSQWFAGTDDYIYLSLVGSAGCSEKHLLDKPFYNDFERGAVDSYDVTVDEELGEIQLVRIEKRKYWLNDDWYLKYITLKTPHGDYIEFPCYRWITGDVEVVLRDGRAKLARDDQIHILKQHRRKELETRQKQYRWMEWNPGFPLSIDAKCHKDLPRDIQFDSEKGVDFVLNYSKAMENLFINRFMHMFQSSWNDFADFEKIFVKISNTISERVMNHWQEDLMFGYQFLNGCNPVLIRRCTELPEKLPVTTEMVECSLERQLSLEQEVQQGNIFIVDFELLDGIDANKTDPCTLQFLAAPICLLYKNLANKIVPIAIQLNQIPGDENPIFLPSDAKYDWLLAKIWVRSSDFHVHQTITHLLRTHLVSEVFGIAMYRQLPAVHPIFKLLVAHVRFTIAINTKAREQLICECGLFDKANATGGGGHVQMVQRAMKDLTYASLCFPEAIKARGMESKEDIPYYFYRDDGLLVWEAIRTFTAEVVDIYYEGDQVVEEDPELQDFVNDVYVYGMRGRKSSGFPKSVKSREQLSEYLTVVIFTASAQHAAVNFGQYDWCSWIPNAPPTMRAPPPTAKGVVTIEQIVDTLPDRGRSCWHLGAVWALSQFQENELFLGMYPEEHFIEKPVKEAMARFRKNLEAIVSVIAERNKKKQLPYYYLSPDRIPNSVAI

[8] = target: Leukotriene B4 receptor 1 (Homo sapiens) (UniProt Q15722)
Sequence of Leukotriene B4 receptor 1 (Homo sapiens) (Q15722 whole entry, looked up): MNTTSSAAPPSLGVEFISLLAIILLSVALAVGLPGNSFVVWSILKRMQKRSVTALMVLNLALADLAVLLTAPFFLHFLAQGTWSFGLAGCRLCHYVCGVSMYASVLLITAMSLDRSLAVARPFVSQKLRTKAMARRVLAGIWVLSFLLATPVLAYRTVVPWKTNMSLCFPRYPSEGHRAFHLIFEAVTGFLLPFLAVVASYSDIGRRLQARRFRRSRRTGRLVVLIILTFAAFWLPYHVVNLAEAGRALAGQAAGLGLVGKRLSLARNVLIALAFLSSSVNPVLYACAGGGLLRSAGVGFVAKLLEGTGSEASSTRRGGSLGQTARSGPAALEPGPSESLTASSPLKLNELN

Sequence of Histamine H1 receptor (P35367 whole entry): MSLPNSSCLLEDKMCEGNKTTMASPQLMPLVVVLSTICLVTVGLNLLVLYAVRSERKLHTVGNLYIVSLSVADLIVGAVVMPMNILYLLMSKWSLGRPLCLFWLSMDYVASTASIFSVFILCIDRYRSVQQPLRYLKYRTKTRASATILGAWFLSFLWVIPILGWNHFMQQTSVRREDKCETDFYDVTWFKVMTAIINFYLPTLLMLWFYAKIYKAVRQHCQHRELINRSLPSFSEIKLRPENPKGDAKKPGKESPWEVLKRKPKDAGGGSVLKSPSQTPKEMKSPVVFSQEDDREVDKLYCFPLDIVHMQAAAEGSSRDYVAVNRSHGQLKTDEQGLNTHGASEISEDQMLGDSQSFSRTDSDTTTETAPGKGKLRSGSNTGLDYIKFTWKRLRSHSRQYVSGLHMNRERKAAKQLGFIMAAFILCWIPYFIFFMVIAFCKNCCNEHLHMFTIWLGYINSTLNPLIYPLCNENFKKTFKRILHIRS
Sequence of Histamine H2 receptor (P25021 whole entry): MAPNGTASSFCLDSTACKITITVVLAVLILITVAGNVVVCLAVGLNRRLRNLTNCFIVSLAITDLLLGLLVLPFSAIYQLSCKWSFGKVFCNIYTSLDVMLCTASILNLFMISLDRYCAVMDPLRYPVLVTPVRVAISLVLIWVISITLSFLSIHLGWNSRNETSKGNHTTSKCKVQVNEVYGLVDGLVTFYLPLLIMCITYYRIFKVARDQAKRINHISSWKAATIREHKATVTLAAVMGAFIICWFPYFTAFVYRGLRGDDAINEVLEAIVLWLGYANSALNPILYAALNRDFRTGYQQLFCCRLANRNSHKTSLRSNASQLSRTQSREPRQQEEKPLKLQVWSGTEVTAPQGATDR

Row | Ki [1] | Ki [2] | Ki [3] | Ki [4] | Ki [5] | Ki [6] | Ki [7] | Ki [8] | Structure (SMILES)
1 | > 1 µM | > 1 µM | > 1 µM | > 1 µM | > 1 µM | > 1 µM | > 1 µM | > 1 µM | CCC(=O)N1c2ccccc2C(N(C(C)=O)c2ccccc2)CC1C (stereo not drawn) [K376]
2 |  | > 1 µM | > 1 µM | > 1 µM | > 1 µM | > 1 µM | > 1 µM | > 1 µM | CC(C)C(=O)N(c1ccccc1)C1CC(C)N(C(=O)c2ccccc2)c2ccccc21 (stereo not drawn) [K117]
3 | > 1 µM | > 1 µM | > 1 µM | > 1 µM | > 1 µM | > 1 µM | > 1 µM | > 1 µM | CC1CC(N(C(=O)C2CC2)c2ccccc2)c2ccccc2N1C(=O)c1ccccc1 (stereo not drawn) [K604]
